Experimental data: PMC11714206, “Massively Parallel Screening of Toll/Interleukin‐1 Receptor (TIR)‐Derived Peptides Reveals Multiple Toll‐Like Receptors (TLRs)‐Targeting Immunomodulatory Peptides” (Advanced Science, 2024)
Blank lines part the entries; values can stand above or below the sequence they belong to.

Target: T1, MyD88^TIR (Homo sapiens, UniProt Q99836)
T1 construct: MyD88 (residues 148–296); 6xHis; made in house; host or cells: E. coli BL21 (DE3)
Experiment: T‐Surf phage library (P8 and P3) selection against MyD88^TIR, four rounds, NGS read counts
Assay type: binding
Details: for P8_MyD88 Rank (after) / P8_MyD88 Rank (before): P8 library; for Population: P8_MyD88 pool: P8 T-Surf phage library, 4th round of selection against MyD88 TIR, share of NGS reads; for P3_MyD88 Rank (after) / P3_MyD88 Rank (before): P3 library
Experimental: T‐Surf libraries were screened against the immobilized TIR domains of two major human TLR adaptor proteins, MAL^TIR and MyD88^TIR, allowing cross‐species selection of TIR‐binding motifs with 190 946 TIR‐derived peptides in a single binding assay (Scheme 1). Enriched phage pools from the fourth round of selection were analyzed using NGS after barcoding the peptide‐coding regions of the phage pools.
Phage display screening was performed by coating two wells of a 96‐well plate (Maxisorp, Thermo Fisher Scientific) with 100 µL of 5 µg mL^−1 TIR domains overnight; then, the coated wells were blocked with 200 µL of blocking buffer (0.2% BSA in PBS) and set aside for 1 h at 4 °C with gentle shaking. Next, 100 µL of the phage library was added to the wells and incubated for 1 h at room temperature (RT; 20 – 22 °C) with gentle shaking. The plate was washed four times with PBS containing 0.5% Tween‐20; the bound phages were eluted by adding 100 µL of 100 mM HCl to each well. The elute was neutralized with 10 µL of 1.0 M Tris‐HCl (pH 11.0). E. coli TG1 cells were grown to the log phase (A600 = ≈0.6), and 1 mL of the culture was incubated with 100 µL of the eluted phages for 30 min at 37 °C, with shaking at 200 rpm. Next, 1 µL of M13KO7 helper phages was added, followed by incubation for 45 min at 37 °C, with shaking. Subsequently, the cells were transferred to 25 mL of 2× yeast extract tryptone/carbenicillin/kanamycin medium and incubated overnight at 37 °C with shaking at 200 rpm. The amplified phages were precipitated with 20% PEG‐8000/2.5 M NaCl to be used for the next round of selection.
The naïve T‐Surf libraries in P8 and P3 and the enriched phage pools after four rounds were barcoded for NGS as previously described.^[ [59] ^] Briefly, 5 µL of the phage pool was used as a template for 20 cycles of a 50 µL PCR reaction using […] each of forward and reverse barcoded primers and PrimeSTAR Max DNA Polymerase. The PCR products were purified using Expin Gel SV (GeneAll). The NGS samples were quantified using qPCR, following the qPCR Quantification Protocol Guide (KAPA Library Quantification kits for Illumina Sequencing Platform), and qualified using the TapeStation High Sensitivity D1000 ScreenTape (Agilent Technologies). The indexed libraries were further sequenced by Macrogen (Seoul, Republic of Korea) using the NovaSeq platform (Illumina) with 100 bp paired‐end reads. The reads were demultiplexed by barcodes and filtered for an average Phred quality score of at least 30, followed by trimming the flanking consensus sequences using Cutadapt (version 2.3). Peptide sequence populations were analyzed according to the read counts.

[1] = P8_MyD88: rank by NGS read count after grouping
[2] = P8_MyD88: rank by NGS read count before grouping
[3] = selection against MyD88, rank by count after grouping
[4] = selection against MyD88, rank by count before grouping
[5] = P8_MyD88: rank by count after grouping
[6] = P8_MyD88: rank by count before grouping
[7] = 4R selection against MyD88, rank after grouping
[8] = 4R selection against MyD88, rank before grouping
[9] = selection against MyD88 TIR, rank by count after grouping
[10] = selection against MyD88 TIR, rank by count before grouping
[11] = selection against MyD88, rank after grouping
[12] = selection against MyD88, rank before grouping

T1 sequence (Q99836 148-296): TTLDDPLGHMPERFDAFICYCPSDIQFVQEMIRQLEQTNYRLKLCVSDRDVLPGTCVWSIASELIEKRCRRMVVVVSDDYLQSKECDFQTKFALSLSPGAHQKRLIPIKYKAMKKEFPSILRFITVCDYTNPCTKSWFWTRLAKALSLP

Rank (after) [1]: 891 | Rank (before) [2]: 2486
Sequence: DWEWDYRLPNLEGPPG

P8_MyD88 Rank (after) [3]: 768 | P8_MyD88 Rank (before) [4]: 2488
Sequence: DWEWEYLRPNLEGTAG

Rank (after) [1]: 990 | Rank (before) [2]: 2482
Sequence: DWGWDYLLPQLEGSAG

P8_MyD88 Rank (after) [3]: 707 | P8_MyD88 Rank (before) [4]: 2481
Sequence: DWGWGYLLPNLEGPAG

Rank (after) [5]: 152 | Rank (before) [6]: 164 | Population: 0.00886%
Sequence: DWLPGRTLFENLWASV

Rank (after) [5]: 424 | Rank (before) [6]: 2396
Sequence: DWVLDYLLPNLERPAG

P8_MyD88 Rank (after) [3]: 700 | P8_MyD88 Rank (before) [4]: 2416
Sequence: DWVWDYLLPDLLGPAG

P8_MyD88 Rank (after) [7]: 579 | P8_MyD88 Rank (before) [8]: 2447
Sequence: DWVWDYLLPKLECPSG

Rank (after) [1]: 987 | Rank (before) [2]: 2420
Sequence: DWVWDYLLPNGRPSG

P8_MyD88 Rank (after) [9]: 260 | P8_MyD88 Rank (before) [10]: 1038
Sequence: DWVWDYLLPNLEGPG

P8_MyD88 Rank (after) [9]: 264 | P8_MyD88 Rank (before) [10]: 550
Sequence: DWVWDYLLPNLEGQR

Rank (after) [1]: 995 | Rank (before) [2]: 2450
Sequence: DWVWDYLLQILHARELF

Rank (after) [1]: 932 | Rank (before) [2]: 2451
Sequence: DWVWDYLLQSGRPSG

Rank (after) [1]: 880 | Rank (before) [2]: 2458
Sequence: DWVWEYLLPNVERPEG

P8_MyD88 Rank (after) [7]: 641 | P8_MyD88 Rank (before) [8]: 2402
Sequence: DWVWVYLLPNLEGPEG

Rank (after) [1]: 979 | Rank (before) [2]: 2403
Sequence: DWVWVYRLPNLEGPAG

P8_MyD88 Rank (after) [9]: 204 | P8_MyD88 Rank (before) [10]: 306
Sequence: DWVYNELIAHLENTEH

P8_MyD88 Rank (after) [11]: 510 | P8_MyD88 Rank (before) [12]: 2544
Sequence: DYANSSWALDELWLIL

P8_MyD88 Rank (after) [3]: 746 | P8_MyD88 Rank (before) [4]: 2543
Sequence: DYASNTFLLRELLQIA

P8_MyD88 Rank (after) [9]: 262 | P8_MyD88 Rank (before) [10]: 693
Sequence: DYASSSWYLDELVHILW

P8_MyD88 Rank (after) [7]: 650 | P8_MyD88 Rank (before) [8]: 2504
Sequence: DYASSWWALDELLRILY

Rank (after) [5]: 159 | Rank (before) [6]: 171 | Population: 0.00809%
Sequence: DYTSSPWALEELLKIM

P8_MyD88 Rank (after) [3]: 697 | P8_MyD88 Rank (before) [4]: 3174
Sequence: EDSIFYAVSSGALDEP

Rank (after) [5]: 173 | Rank (before) [6]: 198
Sequence: EDTLIRLLVQRIMKEL

More lines, now with the values behind:

Sequence: DWVCDYLLPDREGPAG
Rank (after) [1]: 984 | Rank (before) [2]: 2474

Sequence: DWVLGYRLPNLEGPAG
P8_MyD88 Rank (after) [3]: 741 | P8_MyD88 Rank (before) [4]: 2395

Sequence: DWVWDELLKILYANETM
P8_MyD88 Rank (after) [7]: 647 | P8_MyD88 Rank (before) [8]: 2457

Sequence: DWVWDYLLLSVFQTIFARRTE
Rank (after) [5]: 425 | Rank (before) [6]: 1033

Sequence: DWVWDYLLPIWKAQR
P8_MyD88 Rank (after) [3]: 704 | P8_MyD88 Rank (before) [4]: 2449

Sequence: DWVWDYLLPNLEGHAT
Rank (after) [1]: 904 | Rank (before) [2]: 2439

Sequence: DWVWDYMLTNLEGPAG
P8_MyD88 Rank (after) [3]: 708 | P8_MyD88 Rank (before) [4]: 2455

Sequence: DWVWEHFVGIEDHIK
P8_MyD88 Rank (after) [11]: 513 | P8_MyD88 Rank (before) [12]: 2472

Sequence: DYASSSWALDVLWNIF
Rank (after) [1]: 950 | Rank (before) [2]: 2507

Sequence: DYASSTWWLRELLYA
Rank (after) [5]: 434 | Rank (before) [6]: 1060

Sequence: DYASSWWALEEMAKIM
Rank (after) [5]: 177 | Rank (before) [6]: 202

Sequence: DYASYDDNDYYWVTHVLLRHL
Rank (after) [5]: 439 | Rank (before) [6]: 1058

Sequence: EAFAVHENISKKTLK
P3_MyD88 Rank (after) [7]: 611 | P3_MyD88 Rank (before) [8]: 2194

Sequence: EAFAVHVWSSKANSLVG
P3_MyD88 Rank (after) [3]: 727 | P3_MyD88 Rank (before) [4]: 2193

Sequence: EGFTGFLYEALTRYGI
Rank (after) [5]: 174 | Rank (before) [6]: 197

Sequence: EHHLDLPRGKAIKPAILG
Rank (after) (P3_MyD88: rank by count after grouping): 152 | Rank (before) (P3_MyD88: rank by count before grouping): 2117

Sequence: EIARQLLSEYLNIAVY
Rank (after) [5]: 131 | Rank (before) [6]: 142 | Population: 0.0116%
